According to patent publication US20230384333A1 (priority 2020, published 2023):
“Also recorded” adds a separate entry of the source. Read-outs that look alike come from different tables or passages of the source.

What was measured:
psychLight2 [1] = type: cell-based, human
Experimental: Compounds unlikely to bind to the sensor should produce minimal to no response in either agonist or antagonist mode. Therefore, a ligand score was calculated as: […]

C57BL/6J mice = assay: Head-twitch response (HTR) assay; type: in vivo, mouse; details: i.p., multiple doses
Experimental: The HTR assay was performed as described previously using both male and female C57BL/6J mice (2 male and 2 female=4 total per treatment). The mice were obtained from The Jackson Laboratory (Sacramento, C.A.) and were approximately 8-weeks old at the time of the experiments. Compounds were administered (5 mL/kg, i.p.) using 0.9% saline as the vehicle. After injection, animals were placed into an empty cage (8″×13″×5″) and HTRs were videotaped, scored later by two blinded observers, and the results were averaged (interpersonnel kappas, Pearson correlation coefficient>0.91). Locomotion was assessed using AnyMaze automated tracking software.

psychLight2 [2] = assay: PSYLI2 high-content imaging, agonist mode; type: cell-based, human
Experimental: (§1) High-Content Imaging Experiments. Glass bottom 96-well plates (P96-1.5H-N, Cellvis) were coated with 50 μg/mL of poly-D-lysine (Sigma, P6407-5MG) and 10 μg/mL laminin (Sigma, L2020) overnight in an incubator (37° C., 5% CO2). […] Immediately prior to an experiment, stock solutions of drugs in DMSO (10 mM) were first diluted 1:100 in imaging media distributed across an empty 96-well plate (treatment plate) in triplicates following a randomized plate map. […] Cells grown in a separate 96-well plate (assay plate) were gently washed (3×) with imaging media, and the wells were filled with an appropriate volume of imaging media for the respective experiment (vide infra).
(§2) For agonist mode, […] of imaging media was added to each well of the assay plate. Wells were then imaged on a Lecia DMi8 using Leica Application Suite X (V3.6.0.20104) at 40×(N.A.=0.6) with 5 regions of interest (ROI) taken per well using the default 5 ROI pattern for each well with no bias to location and no overlap of the ROIs (exposure=350 ms, LED power=80%). Next, 20 μL from the treatment plate was transferred to the assay plate for a total 1:1000 dilution of drug (10 μM drug, 0.1% DMSO). […] All final concentrations of drugs were 10 μM (0.1% DMSO) in agonist mode unless stated otherwise. After 5 min of incubation, the same sites were re-imaged using the same settings.
Once imaging was complete, the images were exported, put into a stack, and analyzed using ImageJ Fiji (ver. 1.51v) by using the rectangle function to draw an ROI around the cell membrane (one cell per image) on both the pre- and posttreatment images. ROI sizes within each plate were kept the same and saved to the ROI manager in ImageJ (ctrl+T). Images were then measured using the “multi measure” function in the ROI manager. Measurements were saved and exported. Analysis of the data was done by taking the average of each individual well's ROIs before and after drugs were added. Then the ΔF/F values for each well were calculated using the following equation: […]
as §1, with “Glass” for “High-Content Imaging Experiments. Glass”, “50 µg/mL” for “50 μg/mL”, “10 pg/mL of” for “10 μg/mL”, “were” for “were first”, “in triplicate” for “in triplicates”, “washed 3×” for “washed (3×)”
as §2, with “agonist mode experiments,” for “agonist mode,”, “media were” for “media was”, “20 pL” for “20 μL”, “plate containing” for “plate for”, “a” for “a total”, “(10 pM as the final concentration in” for “(10 μM drug,”
Once imaging was complete, the images were exported, and analyzed using self-written MATLAB script. Script will be deposit on to Github. In short, segmentation was performed on individual images and a mask highlighting the membrane of the HEK293T cells was generated. Pixel intensities were obtained from the mask-highlighted area and exported into Excel. The ΔF/F values for each well were calculated using the following equation: […]

psychLight1 [3] = target: psychLight1 (Homo sapiens, UniProt P28223, E264Q/I181A); assay: cell-based; type: cell-based
Experimental: (§3) HEK293T cells were grown in DMEM, supplemented with fetal bovine serum (FBS) and penicillin-streptomycin. Cells were trans-fected with Effectene according to the manufacturer's instructions. Prior to imaging, cells were washed with Hank's Balanced Salt Solution (HBSS) supplemented with 2 mM MgCl2 and 2 mM CaCl2). All images were collected in HBSS containing Mg^2+ and Ca^2+.
(§4) HEK293T cells were plated and transfected concurrently 24 h prior to each experiment using the QIAGEN Effectene Transfection
(§5) Dose-response experiments were performed using an Automate Perfusion System. Cells (HEK293T) were grown on 12 mm cover-slips and transfected with psychLight1. The coverslips were then placed into a coverslip holder and washed with 5 mL of HBSS containing 2 mM MgCl2 and 2 mM CaCl2). Cells were perfused first with 5 mL of 0.1% DMSO, then drugs in ascending concentrations from 1 pM to […] were added, with the concentration of DMSO being held constant at 0.10%. […] For the competition studies described in FIG. 19, HEK293T cells were prepared as described above; however, the cells were first exposed to 5 mL of 0.2% DMSO. […] Analysis was performed by taking 3 ROIs on the cell membrane using ImageJ and calculating the mean intensity for each ROI across the time-points. Finally, the DF/F was calculated using the average of the baseline (0.1 or 0.2% DMSO) and the average intensity between each dosage over the average of the baseline.

psychLight2 [4] = details: mouse, in vivo
Excerpt: Three animals were used for experiments measuring sensor activity in the prelimbic cortex.

psychLight1 [5] = assay: cell-based; type: cell-based, human; details: for EC50: read-out: EC50 (half maximal effective concentration)
Experimental: as §3, §4, §5

psychLight [6] = type: cell-based, human
[7] = tested on: psychLight2 response to electrically evoked 5-HT release; set-up: species or system mouse
psychLight [8] = assay: Schild regression analysis in PSYLI2 cells; type: cell-based, human
Experimental: During imaging, […] of imaging media were added to each well of the assay plate. Wells were then imaged on a Lecia DMi8 using Leica Application Suite X (V3.6.0.20104) at 40×(N.A.=0.6) with 5 regions of interest (ROI) taken per well using the default 5 ROI pattern for each well with no bias to location and no overlap of the ROIs (exposure=350 ms, LED power=80%). Next, […] from the treatment plate was transferred to the assay plate for a final 1:1000 dilution of drug. All final drug treatments contained 0.1% DMSO. After 5 min of incubation, the same sites were re-imaged using the same settings. The data analysis method was the same as in agonist and antagonist mode.

dLight = type: cell-based
[9] = HEK293T cells expressing psychLight
[10] = 10 μM compound, hit limit 1 SD from vehicle

Sequence of psychLight1 (Homo sapiens, UniProt P28223, E264Q/I181A) (P28223 whole entry I181A/E264Q, looked up): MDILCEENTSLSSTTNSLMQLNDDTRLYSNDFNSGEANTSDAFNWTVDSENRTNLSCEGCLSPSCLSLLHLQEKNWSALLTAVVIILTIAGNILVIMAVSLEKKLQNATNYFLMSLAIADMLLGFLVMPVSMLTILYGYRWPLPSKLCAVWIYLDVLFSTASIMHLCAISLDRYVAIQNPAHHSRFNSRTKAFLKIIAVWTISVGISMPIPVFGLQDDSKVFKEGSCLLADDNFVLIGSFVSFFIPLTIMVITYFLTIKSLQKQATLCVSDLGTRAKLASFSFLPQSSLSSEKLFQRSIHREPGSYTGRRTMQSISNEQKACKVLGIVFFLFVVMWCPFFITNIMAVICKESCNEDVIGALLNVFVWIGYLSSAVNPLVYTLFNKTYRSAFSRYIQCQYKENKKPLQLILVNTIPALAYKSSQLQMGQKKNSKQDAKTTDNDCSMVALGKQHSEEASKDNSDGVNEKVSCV

CN(C)CCc1c[nH]c2ccc(Br)cc12 [5-Br-DMT, 5-bromo-N,N-dimethyltryptamine]
ligand score (psychLight2 [1]): negative ligand score
head-twitch response (HTR) (C57BL/6J mice): did not induce head-twitches at any dose; also recorded: failed to induce HTRs at any dose

CN(C)CCc1c[nH]c2ccc(Cl)cc12 [5-Cl-DMT, 5-chloro-N,N-dimethyltryptamine]
ligand score (psychLight2 [1]): positive ligand scores
head-twitch response (HTR) (C57BL/6J mice): produced robust HTRs

CN(C)CCc1c[nH]c2ccc(F)cc12 [5-F-DMT, 5-flouo-N,N-dimethyltryptamine]
ligand score (psychLight2 [1]): positive ligand scores
head-twitch response (HTR) (C57BL/6J mice): produced robust HTRs

NCCc1c[nH]c2ccc(O)cc12 [5-HT, serotonin]
PSYLI2 response (positive and negative controls) (psychLight2 [2]): 44.8±0.8%
fluorescence intensity change, high content imager with psychLight2 (psychLight2 [2]): 38.2±2.4%
ΔF/F PSYLI2 fluorescence, panel of tryptamines (psychLight2 [2]): 46.3%±1.4%
fluorescence intensity change, confocal with psychLight1 (psychLight1 [3]): 77.3±2.4%

COc1ccc2[nH]cc(CCN(C)C)c2c1 [5-MeO, 5-methoxy-N,N-dimethyltrytamine]
head-twitch response during fiber photometry (psychLight2 [4]): concomitant increase in HTR
psychLight2 fluorescence in prelimbic cortex after injection (psychLight2 [4]): sharp increase in fluorescence
fluorescence intensity change, high content imager with psychLight2 (psychLight2 [2]): 24.1±4.6%
Emax (psychLight1 [3]): 48.4%
fluorescence intensity change, confocal with psychLight1 (psychLight1 [5]): 48.4±3.1%
EC50 (psychLight1 [5]): 157 nM

CN(C)CCc1c[nH]c2ccc(O)cc12 [BUFO, N,N-dimethylserotonin]
ΔF/F PSYLI2 fluorescence, panel of tryptamines (psychLight2 [2]): 22.3%±2.8%

CN(C)CCc1c[nH]c2ccccc12 [DMT, N,N-dimethyltrytamine]
screen outcome in agonist mode (psychLight2 [2]): false negative
Emax (psychLight1 [3]; HEK-293T): 12.4%
EC50 (psychLight1 [5]): 627 nM

NCCCC(=O)O [GABA, y-aminobutyric acid]
response of psychLight to neurotransmitters (psychLight [6]; [9]): do not respond

O=C(c1ccc(F)cc1)C1CCN(CCn2c(=O)[nH]c3ccccc3c2=O)CC1 [KETSN, ketanserin]
block of psychLight fluorescence to electrically evoked 5-HT transients [7]: sufficient to block psychLight fluorescence
peak response to field stimulation of BNST slices ([7]; KETSN 10 μM, N=5 slices): 0±0.36%
PSYLI2 response (positive and negative controls) (psychLight2 [2]): −12.7±0.5%
fluorescence intensity change, high content imager with psychLight2 (psychLight2 [2]): −3.5±1.6%
block of 5-HT-induced activation of psychLight (psychLight1 [3]): able to block 5-HT-induced activation of psychLight
effect on psychLight fluorescence (psychLight1 [3]): neutral antagonists; also recorded: minimal effect on psychLight1 fluorescence or slightly quenched the sensor
fluorescence intensity change, confocal with psychLight1 (psychLight1 [3]): −1.7±0.3%

CCN(CC)C(=O)N[C@H]1C=C2c3cccc4[nH]cc(c34)C[C@H]2N(C)C1 [LIS, lisuride]
Schild regression (pA2) outcome (psychLight [8]): potent psychLight competitive antagonists

CCN(CC)C(=O)[C@@H]1C=C2c3cccc4[nH]cc(c34)C[C@H]2N(C)C1 [LSD, lysergic acid diethylamide]
activation of dLight (dLight): both activated dLight to the same extent

CNCCc1c[nH]c2ccc(O)cc12 [N-5-HT, N-methylserotonin]
ΔF/F PSYLI2 fluorescence, panel of tryptamines (psychLight2 [2]): 24.6%±1.7%

c1ccc(C2(N3CCCCC3)CCCCC2)cc1 [PCP, Phencyclidine]
ligand score (psychLight2 [1]): ~0
screen outcome in agonist mode (psychLight2 [2]): did not activate the sensor

C[C@H](Cc1ccccc1)N(C)C [R-dimethamphetamine, (R)-dimethamphetamine]
screen outcome in agonist mode (psychLight2 [2]; [10]): potential hallucinogenic hits

CN1CCc2cccc3c2[C@H]1Cc1ccc(O)c(O)c1-3 [apomorphine, R-(−)-apomorphine]
Schild regression (pA2) outcome (psychLight [8]): potent psychLight competitive antagonists

CN1[C@@H]2CC[C@H]1C[C@@H](OC(c1ccccc1)c1ccccc1)C2 [benztropine]
Schild regression (pA2) outcome (psychLight [8]): potent psychLight competitive antagonists

NCCc1ccc(O)c(O)c1 [dopamine]
response of psychLight to neurotransmitters (psychLight [6]): do not respond

N[C@@H](CCC(=O)O)C(=O)O [glutamate, L-glutamic acid]
response of psychLight to neurotransmitters (psychLight [6]; [9]): do not respond

CN1C2CCCC1CC(NC(=O)c1nn(C)c3ccccc13)C2 (centres unmarked) [granisetron]
block of psychLight fluorescence to electrically evoked 5-HT transients [7]: sufficient to block psychLight fluorescence

NC[C@H](O)c1ccc(O)c(O)c1 [norepinephrine]
response of psychLight to neurotransmitters (psychLight [6]; [9]): do not respond

COC(=O)[C@@H]1C[C@H](OC(C)=O)C(=O)[C@H]2[C@@]1(C)CC[C@H]1C(=O)O[C@H](c3ccoc3)C[C@]21C [salvinorin A]
ligand score (psychLight2 [1]): ~0
screen outcome in agonist mode (psychLight2 [2]; [10]): did not activate the sensor

NCCc1c[nH]c2ccccc12 [tryptamine]
ΔF/F PSYLI2 fluorescence, panel of tryptamines (psychLight2 [2]): robust response

tetrodotoxin citrate
block of psychLight fluorescence to electrically evoked 5-HT transients [7]: sufficient to block psychLight fluorescence
